Test results reported in the NIST ThermoML archive (doi:10.1021/acs.jced.8b00212).

Details: Fluid (supercritical or subcritical phases), Brillouin light scattering

CCCCCCC [heptane]
Details	speed of sound [m/s]
513.4 K, 8000 kPa	451.65
513.58 K, 6000 kPa	394.15
513.59 K, 3000 kPa	293.56
513.65 K, 4000 kPa	333.84
513.92 K, 2500 kPa	266.66
515.23 K, 5000 kPa	363.89
515.3 K, 10000 kPa	481.16
521.41 K, 5000 kPa	337.01
523.19 K, 10000 kPa	459.31
523.83 K, 3000 kPa	242.56
524.25 K, 4000 kPa	291.43
524.62 K, 6000 kPa	357.73
524.62 K, 8000 kPa	417.84
525.23 K, 2500 kPa	196.31
528.41 K, 3000 kPa	218.56
528.9 K, 4000 kPa	269.01
528.93 K, 2500 kPa	167.01
528.95 K, 8000 kPa	403.55
529.1 K, 6000 kPa	344.17
532.76 K, 3000 kPa	193.81
533.4 K, 10000 kPa	437.12
533.55 K, 4000 kPa	252.16
533.57 K, 8000 kPa	391.25
533.77 K, 6000 kPa	331.99
534.12 K, 2500 kPa	121.38
534.45 K, 5000 kPa	293.97
537.58 K, 4000 kPa	231.06
538.13 K, 2500 kPa	101.28
538.36 K, 3000 kPa	152.7
538.84 K, 8000 kPa	376.34
539.09 K, 6000 kPa	316.72
541.47 K, 4000 kPa	208.26
542.55 K, 8000 kPa	364.39
543.16 K, 10000 kPa	413.25
543.5 K, 5000 kPa	262.34
543.6 K, 6000 kPa	300.59
544.09 K, 2500 kPa	100.71
544.95 K, 3000 kPa	115.6
547.02 K, 2500 kPa	107.6
548.66 K, 8000 kPa	346.4
548.98 K, 6000 kPa	283.97
549.04 K, 3000 kPa	105.27
549.16 K, 4000 kPa	178.39
552.59 K, 2500 kPa	118.66
553.05 K, 6000 kPa	270.32
553.19 K, 8000 kPa	335.76
553.2 K, 10000 kPa	388.87
553.42 K, 5000 kPa	225.17
553.43 K, 4000 kPa	160.12
553.93 K, 3000 kPa	110.64
557.81 K, 8000 kPa	325.48
557.86 K, 6000 kPa	255.8
559.74 K, 3000 kPa	116.03
559.91 K, 2500 kPa	129.19
560.41 K, 4000 kPa	132.63
563.03 K, 10000 kPa	363.89
563.09 K, 3000 kPa	119.84
563.58 K, 8000 kPa	312.82
563.84 K, 6000 kPa	236.54
563.94 K, 4000 kPa	124.51
564.02 K, 2500 kPa	135.46
565.65 K, 5000 kPa	187.87
572.57 K, 2500 kPa	144.47
573.39 K, 10000 kPa	345.21
574.33 K, 3000 kPa	134.46
574.41 K, 8000 kPa	287.41
574.85 K, 6000 kPa	211.93
574.87 K, 5000 kPa	160.49
575.28 K, 4000 kPa	113.58
577.04 K, 5000 kPa	154.18
579.18 K, 10000 kPa	331.94
582.31 K, 5000 kPa	142.67
582.39 K, 3000 kPa	142.99
582.86 K, 10000 kPa	325.02
583.1 K, 8000 kPa	270.69
583.18 K, 6000 kPa	191.45
584.19 K, 2500 kPa	156.26
584.6 K, 4000 kPa	122.55
587.85 K, 10000 kPa	315.79
588.17 K, 5000 kPa	139.88
590.48 K, 2500 kPa	161.58
591.62 K, 4000 kPa	127.84
591.77 K, 3000 kPa	152.87
592.28 K, 5000 kPa	136.41
592.57 K, 6000 kPa	176.14
592.71 K, 10000 kPa	307.49
593.19 K, 8000 kPa	249.19
597.48 K, 5000 kPa	135.43
601.6 K, 2500 kPa	170.4
602.3 K, 5000 kPa	135.26
602.84 K, 3000 kPa	161.38
603.51 K, 10000 kPa	291.2
603.68 K, 4000 kPa	143.88
604.1 K, 6000 kPa	161.83
604.67 K, 8000 kPa	226
607.65 K, 5000 kPa	136.72
612.08 K, 4000 kPa	149.82
612.37 K, 3000 kPa	167.57
612.58 K, 2500 kPa	179.23
613.73 K, 6000 kPa	158.49
613.93 K, 8000 kPa	218.01
614.03 K, 10000 kPa	272.94
615.11 K, 5000 kPa	142.58
620.2 K, 8000 kPa	211.6
620.87 K, 2500 kPa	183.77
621.22 K, 4000 kPa	157.32
622.48 K, 6000 kPa	158.77
623.13 K, 10000 kPa	260.67
623.25 K, 5000 kPa	150.58
623.42 K, 3000 kPa	174.58
631.85 K, 4000 kPa	163.15
632.04 K, 3000 kPa	179.96
632.18 K, 2500 kPa	189.44
632.29 K, 5000 kPa	156.55
632.41 K, 6000 kPa	159.42
632.86 K, 8000 kPa	201.03
640.72 K, 2500 kPa	192.85
641.53 K, 3000 kPa	186.21
641.95 K, 4000 kPa	173.32
642.59 K, 8000 kPa	195.65
643.04 K, 6000 kPa	164.74
643.51 K, 5000 kPa	165.41
650.07 K, 2500 kPa	195.77
650.9 K, 3000 kPa	189.41
